Measured values as given in US10213516B2, “Labelled carboxylic acids and their uses in molecular imaging” (Imperial Innovations Limited, priority 2013, dated 2019).
“Also recorded” adds a separate entry of the source.

Assays:
[1] = system: BT474 cells; assay: Metabolism experiments in cells (LC-MS); format: cell-based, human
Description: (§1) EMT6 murine breast cancer cells (LGC Standards) were grown in Waymouth's medium (Life Technologies), with U87 human glioma cells (LGC Standards) grown in DMEM medium (Life Technologies). DU145 (kind donation from Dr. Almut Schulze, CRUK London Research Institute) and BT474 (LGC Standards) were grown in RPMI (Life Technologies). All media were supplemented with 2.5 mL penicillin/streptomycin (10,000 IU·mL^−1/10,000 […]) and 2 mM L-glutamine (Life Technologies). Waymouth's medium contained 15% fetal calf serum (FCS), with 10% FCS added to DMEM and RPMI. All cells were propagated at 37° C. in a humidified atmosphere containing 5% CO2.
BT474 cells were seeded in 12-well plates at 2×10^5 cells per well. For measurement of FDMP uptake, the media was replaced with media supplemented with 500 μM FDMP and incubated for the indicated times. All media samples were harvested at the same time and immediately diluted into ice-cold extraction solution of methanol, acetonitrile, and water (5:3:2) (All chemicals were purchased from Fisher Scientific and were LC-MS grade). Cell numbers were assumed to be identical. The amount of extraction solution added to each well was determined by cell counts obtained from a counting plate run in parallel (1 mL/2×10^6 cells). Extracts were vortexed for 10 min at 4° C. and then centrifuged at 16,500 g at 4° C. for 15 min. Supernatants were removed and analyzed by LC-MS (ZIC-pHelic HPLC columns and Exactive Plus Orbitrap MS (ThermoScientific). Data was analyzed using Xcalibur and LCQuan software (ThermoScientific). FDMP and FAC standards were run in isolation for quantification.

[2] = system: tumour; conditions: cited from earlier work
[3] = system: U87 glioma human xenografts; assay: Biodistribution in U87 human glioblastoma-bearing BALB/c nude mice; format: in vivo; conditions: for Tumour/brain ratio: U87 glioma, 60 min post injection; for Tumour uptake: U87 xenografts, 60 min post-radiotracer injection
Description: (§2) All animal experiments were performed by licensed investigators in accordance with the United Kingdom Home Office Guidance on the Operation of the Animal (Scientific Procedures) Act 1986 and within the published guidelines for the welfare and use of animals in cancer research.^22 EMT6 tumour cells (2×10^6; 100 μL PBS) were injected subcutaneously on the back of female BALB/c mice (aged 6-8 weeks; Charles River) and grown to ˜150 mm^3. U87 tumours were grown following subcutaneous injection of 5×10^6 cells (100 μL PBS) on the back of female BALB/c nude mice (aged 6-8 weeks; Charles River), with BT474 tumours induced following injection of 5×10^6 cells in matrigel (BD Biosciences; 1:1 ratio PBS-to-matrigel; 100 μL total). Tumour dimensions were measured periodically using a caliper and tumour volumes were calculated by the equation: volume=(π/6)×a×b×c, where a, b, and c represent three orthogonal axes of the tumour. Inflammation was performed in an aseptic inflammation model as previously described.^23
(§3) [^18F]FDMP (˜3.7 MBq) was injected via the tail vein of anaesthetized EMT6 tumour-bearing BALB/c mice. The mice were maintained under anesthesia and sacrificed by exsanguination via cardiac puncture at 2, 15, 30, 60, 120 or 180 min post radiotracer injection and tissues harvested. Biodistribution studies with BT474 and U87 tumour-bearing nude mice were performed 60 min post [^18F]FDMP injection. Tissue radioactivity was determined on a gamma counter (Cobra II Auto-Gamma counter, Packard Biosciences Co.) and decay corrected. 10 μL standards from a 1:100 dilution of the stock activity were also counted for data normalization. Plasma was obtained from terminal blood samples following centrifugation (14000 g, 5 min). Data were expressed as percent injected dose per gram of tissue (% ID/g).

[4] = system: EMT6 tumours; assay: PET imaging of EMT6 tumour-bearing mice; format: in vivo; conditions: 60 min
Description: All animal experiments were performed by licensed investigators in accordance with the United Kingdom Home Office Guidance on the Operation of the Animal (Scientific Procedures) Act 1986 and within the published guidelines for the welfare and use of animals in cancer research.^22 EMT6 tumour cells (2×10^6; 100 μL PBS) were injected subcutaneously on the back of female BALB/c mice (aged 6-8 weeks; Charles River) and grown to ˜150 mm^3. […] Tumour dimensions were measured periodically using a caliper and tumour volumes were calculated by the equation: volume=(π/6)×a×b×c, where a, b, and c represent three orthogonal axes of the tumour. […]
[^18F]FDMP imaging scans were carried out on a GENISYS^4 small animal PET scanner (Sofie Biosciences), following a bolus i.v. injection of ˜1.85 MBq of the radiotracer into tumour-bearing mice. […] Tumour radioactivity were normalized to that of the whole body to obtain the normalized uptake value (NUV) to permit comparison of data obtained using the two scanners.
Dynamic [^18F]FDMP imaging scans were carried outa dedicated small animal PET scanner (Siemens Inveon PET module, Siemens Medical Solutions USA, Inc., Malvern, Pa., USA) following a bolus i.v. injection of ˜3.7 MBq of the radiotracer into tumour-bearing mice. […] The count densities were averaged for all VOIs at each time point to obtain a time versus radioactivity curve (TAC). […]

[5] = system: DU145 prostate adenocarcinoma tumours; assay: PET imaging of DU145 tumour-bearing mice; format: in vivo; conditions: for Tumour visibility by PET: DU145, 50-60 min static scans; for Tumour to whole body normalized uptake: 50-60 min static scans
Description: [^18F]FDMP imaging scans were carried out on a GENISYS^4 small animal PET scanner (Sofie Biosciences), following a bolus i.v. injection of ˜1.85 MBq of the radiotracer into tumour-bearing mice. Static scans were acquired for 10 min and images were reconstructed using maximum-likelihood expectation maximization. In a different cohort of mice, dynamic PET imaging was performed on a Siemens Inveon PET module, (Siemens Medical Solutions USA) as described in supplementary materials. Dynamic PET imaging was performed for the [^18F]FDMP and [^18F]FDG comparison study in EMT6 tumour-bearing mice. Static scans on the GENISYS^4 were used for all other experiments. Siemens Inveon Research Workplace software was used for visualization of radiotracer uptake in the tumour and to define the three-dimensional volumes of interest (VOI). Tumour radioactivity were normalized to that of the whole body to obtain the normalized uptake value (NUV) to permit comparison of data obtained using the two scanners.

[6] = system: Turpentine-induced inflammatory tissue; assay: Aseptic inflammation model biodistribution; format: in vivo; conditions: for Inflammation-to-muscle ratio: in vivo; for Accumulation in chemically-induced inflammatory tissues: turpentine-treated muscle
Description: as §2, §3

[7] = system: EMT6 murine breast cancer cells; assay: [18F]FDMP uptake in cells (gamma counting); format: cell-based
Description: as §1
EMT6 cells (2×10^5) were plated into 6-well plates overnight prior to analysis. On the day of the experiment fresh growth medium containing 0.74 MBq [^18F]FDMP were added to individual wells (1 mL/well). Cell uptake was measured over 60 min post radiotracer addition. Plates were placed on ice, washed 3 times with ice-cold PBS and lysed in RIPA buffer (Thermo Fisher Scientific Inc.; 1 mL, 10 min). Cell lysates were transferred to counting tubes and decay-corrected radioactivity was determined on a gamma counter (Cobra II Auto-Gamma counter, Packard Biosciences Co.). Aliquots were snap-frozen and used for protein determination following radioactive decay using a BCA 96-well plate assay (Thermo Fisher Scientific Inc.). In addition, 10 μL standards from a 0.74 MBq/mL stock solution were counted to quantitate % radiotracer uptake. For carnitine treatment, cells were incubated with 10 μM L-carnitine for the duration of the uptake time course.

[8] = system: EMT6 murine breast adenocarcinoma xenografts; assay: Biodistribution time course in EMT6 tumour-bearing BALB/c mice; format: in vivo
Description: as §2, §3

[9] = system: BT474 tumours; assay: Biodistribution in BT474 tumour-bearing nude mice; format: in vivo, BALB/c nude mice; conditions: 60 min post injection
Description: as §2, with “Inflammation was performed in an aseptic inflammation model as previously described.^23” left out
[^18F]FDMP (˜3.7 MBq) was injected via the tail vein of anaesthetized EMT6 tumour-bearing BALB/c mice. […] Tissue radioactivity was determined on a gamma counter (Cobra II Auto-Gamma counter, Packard Biosciences Co.) and decay corrected. 10 μL standards from a 1:100 dilution of the stock activity were also counted for data normalization. […] Data were expressed as percent injected dose per gram of tissue (% ID/g).

[10] = In vivo radiotracer stability and metabolism (radio-HPLC of tissue extracts); design: species or system BALB/c non-tumour-bearing mice
Description: Radiolabeled metabolites from plasma and tissues were quantified using an adapted method.^24 BALB/c non-tumour-bearing mice under general anesthesia (2.5% isofluorane; non-recovery anesthesia) were administered a bolus i.v. injection of [^18F]FDMP (˜7.4 MBq), and sacrificed by exsanguination via cardiac puncture 30 min post radiotracer injection. Heart, urine and liver samples were immediately snap-frozen in liquid nitrogen. Aliquots of heparinized blood were rapidly centrifuged (14000 g, 5 min, 4° C.) to obtain plasma. Plasma samples were subsequently snap-frozen in liquid nitrogen and kept on dry ice prior to analysis. For analysis, samples were thawed and kept at 4° C. immediately before use. To ice cold plasma and urine (200 μL) was added ice-cold methanol (600 μL) and the resulting suspension centrifuged (14000 g; 4° C.; 3 min). 300 μL of the resulting supernatant was added to 1 mL ice cold mobile phase. […] Samples were analyzed on an Agilent 1100 series HPLC system (Agilent Technologies, Santa Clara, Calif., USA), using an isocratic method of 10% MeOH in an ion pair buffer prepared as follows and a μBondapak C18 semi preparative HPLC column (Waters, Milford, Mass., USA; […]). […]

[11] = PET/CT imaging in healthy BALB/c mice; format: in vivo
[12] = system: orthotopic U87 brain tumour; assay: PET imaging in orthotopic U87 brain tumour model; format: in vivo; conditions: 15-30 min and 45-60 min post radiotracer injection
Description: FIG. 14. [^18F]FDMP and [^18F]FDG uptake in an orthotopic U87 brain tumour model. PET images were acquired 15-30 min and 45-60 min post radiotracer injection 6 weeks after intracranial injection of U87 glioma cells. White arrows indicate the tumour.
[^18F]FDMP and [^18F]FDG uptake in an orthotopic U87 brain tumour model was analysed (FIG. 14). […] The background is very low, so good staining is achieved.

For `O=C(O)CF` [[^19F]FAC, [^19F]fluroacetate, reference compound], the “Intracellular metabolites observed by LC-MS” value ([1]; 500 μM in medium, BT474 cells) was “only the parent compound and [^19F]fluorocitrate were observed” and the “Effect on intracellular metabolite pools (citrate, cis-aconitate, alpha-ketoglutarate)” value ([1]; BT474 cells, LC-MS) was “significant increase in citrate and cis-aconitate, together with significant decrease in alpha-ketoglutarate”.

For `CC([18F])C(=O)O` (centres unmarked) [[^18F]FPA, [^18F]2-fluoropropionic acid], the Tumour-to-brain ratio ([2]; 60 minutes post-injection) is given as 1.27 and the “Tumour to blood ratio” value ([2]; Table 1 in reference 28) is given as 1.03.

With “[^18F]2-fluoro-2-deoxyglucose [[^18F]FDG, reference compound]” the Tumour/brain ratio [3] was 1.3, the Tumour uptake [3] was 11.0±1.1 % ID/g and the “Tumour to whole body normalized uptake” value [4] was 1.02±0.16 NUV. For the same compound, the “Tumour visibility by PET” value [5] was “not visible above background”, the “Tumour to whole body normalized uptake” value ([5]; DU145 prostate tumours) was 0.47±0.09 NUV and the Inflammation-to-muscle ratio [6] was 2.66. The “Accumulation in chemically-induced inflammatory tissues” value [6] was 5.86±0.68 % ID/g.

For `CC(C)(C[18F])C(=O)O` [[^18F]FDMP, [^18F]3-fluoro-2,2-dimethylpropanoic acid], the “Uptake into EMT6 tumour cells” value ([7]; 30 min of incubation) was 1.40±0.10 % radioactivity/mg protein, the “Uptake into EMT6 tumour cells” value ([7]; 60 min post radiotracer addition (plateau)) was 1.47±0.04 % radioactivity/mg protein and the “Uptake increase compared to control cells” value ([7]; incubation with 10 μM L-carnitine) was 44%. The Bone uptake ([8]; 2, 15, 30 and 60 minutes after administration) was “low bone uptake”, the “Tumour to blood ratio” value ([8]; EMT6, after 60 minutes) was “up to 2.32” and the Tumour-associated radioactivity ([8]; EMT6 tumour, 30 min post injection) was 9.3±1.0 % ID/g. For the same compound, the Tumour-associated radioactivity ([8]; EMT6 tumour, 120 min post radiotracer injection) was 9.8±2.0 % ID/g, the Tumour-associated radioactivity ([8]; EMT6 tumour, 180 min) was 6.3±0.7 % ID/g and the “Reduction of tumour-associated radioactivity” value ([8]; EMT6 tumour, by 180 min) was 36%. The Tumour radioactivity ([8]; EMT6 tumours, 60 min post injection) was 9.1±0.5 % ID/g, the Blood-brain barrier passage ([8]; gamma counting and dynamic PET) was “able to cross the blood-brain barrier; also recorded: passes the blood brain barrier” and the Tumour radioactivity [9] was 7.6±1.2 % ID/g. The Tumour/brain ratio [3] was 2.5, the Tumour uptake [3] was 9.35±1.0 % ID/g and the “Uptake in the normal brain” value ([3]; compared with [18F]FDG) was “significantly lower than [^18F]FDG”. The “Stability in plasma, liver and heart by radioHPLC” value ([10]; 30 min post injection) was “no degradation; also recorded: only peaks of the parent compound detectable”, the “Parent peak fraction in urine” value ([10]; urine, 30 min) was 61.8±6.6 % radioactivity and the “Tumour to whole body normalized uptake” value [4] was 1.15±0.13 NUV. The “Tumour visibility by PET” value [5] was “clearly discernable”, the “Tumour uptake higher than [18F]FDG” value ([5]; DU145 prostate tumours) was 54% and the “Tumour to whole body normalized uptake” value ([5]; DU145 prostate tumours) was 0.73±0.07 NUV. The Inflammation-to-muscle ratio [6] was 2.36, the “Accumulation in chemically-induced inflammatory tissues” value [6] was 6.53±1.13 % ID/g and the “Defluorination of the tracer (retention in bones)” value [11] was “no defluorination”. The “Tumour staining in PET images” value [12] was “good staining of the U87 tumour was visible”.

In the case of `CC(C)(CF)C(=O)O` [[^19F]FDMP], the “Uptake by BT474 cells detected by mass spectrometry” value ([1]; 500 μM in medium) is reported as “rapidly taken up” and the “Intracellular metabolites observed by LC-MS” value ([1]; 500 μM in medium, BT474 cells) is reported as “no other metabolites were observed”.
